Test results reported in PubChem BioAssay AID2335 (Sanford-Burnham Center for Chemical Genomics, 2010).
Active and inactive are the calls of the source. How the calls were made is not given here.

System: HEK293 cytotoxicity, cell viability
Test: HEK293 cell viability reduction – revised, SAR follow-up (AID 2335)

SMILES: Cn1nccc1C(=O)NC1CCCc2c1cnn2-c1ccccc1F (stereo unspecified)
- IC50: > 20 µM (inactive)
